Results taken from patent US20100004403A1, “High-Molecular Weight Conjugate of Combretastatins” (priority 2006, published 2010).

How the values were obtained:
[1] = test system: Mouse colon cancer, Colon26; assay: Antitumor effect, Test Example 3: subcutaneously transplanted Colon26 in mice, single intravenous administration; type: in vivo, mouse (female CDF1 mice); conditions: 200 mg/kg (as combretastatin A-4), single i.v.
Protocol: (§1) Mouse colon cancer, Colon26, maintained by serial subcutaneous subculture in mice was minced into about 1-mm square fragments, and the fragments were subcutaneously transplanted on the dorsal part of female CDF1 mice with a trocar. Seven days after tumor transplantation, the high-molecular weight conjugate of the present invention (compound 2 and compound 3) or a control drug (combretastatin A-4 phosphoric acid ester) synthesized by a method according to Non-Patent Document 1 was administered a single time intravenously to the mouse tail vein, at a dose respectively calculated on the basis of combretastatin A-4. The control is a group not given the drug. Compound 2, compound 3 and the control drug were all dissolved in a 5% glucose injection solution and used. After the administration, the major axis (L mm) and the minor axis (W mm) of the tumor were measured using a caliper, and the volume of tumor was calculated by the formula: (L×W^2)/2.

[2] = test system: Mouse colon cancer, Colon26; assay: Antitumor effect, Test Example 2: subcutaneously transplanted Colon26 in mice, single intravenous administration; type: in vivo, mouse (female CDF1 mice); conditions: single i.v.
Protocol: as §1, with “2-mm” for “1-mm”, “1)” for “2 and compound 3)”, “A-4)” for “A-4 phosphoric acid ester) synthesized by a method according to Non-Patent Document 1”, “1 was” for “2, compound 3 and the control drug were all”, “used. Combretastatin A-4 was dissolved in dimethylsulfoxide and Cremophor EL (manufactured by Sigma-Aldrich Company), and was used after diluted with a 5% glucose injection solution at the time of use.” for “used.”

Which “relative tumor volume based on the tumor volume on the day of initiation of administration” value (shortened to “relative tumor volume based”) ([1]; day 0 after administration) does the source give for `COc1ccc(/C=C\c2cc(OC)c(OC)c(OC)c2)cc1OP(=O)(O)O` [Combretastatin A-4 phosphoric acid ester, combretastatin A-4 phosphoric acid ester] here?
The value was 1.00.

And the “relative tumor volume based” value ([1]; day 2 after administration)?
The value was 1.57.

And the “relative tumor volume based” value ([1]; day 4 after administration)?
The value was 3.12.

What about the “relative tumor volume based” value ([1]; day 7 after administration) of the same molecule?
The value was 9.33.

What about the “relative tumor volume based” value ([1]; day 9 after administration) of the same molecule?
The value was 10.11.

How did the “relative tumor volume based” value ([2]; 200 mg/kg (as combretastatin A-4), day 0 after administration) turn out when `COc1ccc(/C=C\c2cc(OC)c(OC)c(OC)c2)cc1O` [Combretastatin A-4, combretastatin A-4] was run?
The value was 1.00.

What about the “relative tumor volume based” value ([2]; 200 mg/kg (as combretastatin A-4), day 2 after administration) of the same molecule?
The value was 1.77.

And the “relative tumor volume based” value ([2]; 200 mg/kg (as combretastatin A-4), day 4 after administration)?
Its value is 3.73.

And the “relative tumor volume based” value ([2]; 200 mg/kg (as combretastatin A-4), day 7 after administration)?
The value was 9.25.

And the “relative tumor volume based” value ([2]; 200 mg/kg (as combretastatin A-4), day 8 after administration)?
The value was 12.03.

And the “relative tumor volume based” value ([2]; 400 mg/kg, day 0 after administration)?
The value was 1.00.

What about the “relative tumor volume based” value ([2]; 400 mg/kg, day 2 after administration) of the same molecule?
The value was 1.24.

And the “relative tumor volume based” value ([2]; 400 mg/kg, day 4 after administration)?
Its value is 2.21.

And the “relative tumor volume based” value ([2]; 400 mg/kg, day 7 after administration)?
The value was 5.09.

And the “relative tumor volume based” value ([2]; 400 mg/kg, day 8 after administration)?
Its value is 6.41.
